Where two headings read alike, the source gives them in different places. Where a SMILES comes first, the peptide text is derived from it. Bridges are numbered along the chain shown (N, C = ends). [ ]: non-standard residue; d: D form. The star is where a group is joined. hPhe(3,5-F2-4-CF3) = N[C@@H](CCc1cc(F)c(C(F)(F)F)c(F)c1)C(=O)O; hPhe(3-Cl-4-CF3) = N[C@@H](CCc1ccc(C(F)(F)F)c(Cl)c1)C(=O)O; NPrPhe(4-CF3) = CCCN[C@@H](Cc1ccc(C(F)(F)F)cc1)C(=O)O; NMeAbu(4,4,4-F3) = CN[C@@H](CC(F)(F)F)C(=O)O; NMeGly(cPent) = CN[C@H](C(=O)O)C1CCCC1; NMeD = CN[C@@H](CC(=O)O)C(=O)O; NMeL = CN[C@@H](CC(C)C)C(=O)O; NMeNva = CCC[C@H](NC)C(=O)O; Morpholide = C1CN(*)CCO1; NMeA = CN[C@@H](C)C(=O)O; Ac5c = NC1(C(=O)O)CCCC1; Aze = O=C(O)[C@@H]1CCN1; Abu = CC[C@H](N)C(=O)O; Sar = CNCC(=O)O
Columns and labels:
[1] = target: GDP-bound KRAS wild-type protein (Homo sapiens, UniProt P01116); assay: Binding to KRAS by surface plasmon resonance (SPR), Single Cycle Kinetics; settings: GDP-bound KRAS wild-type protein, read-out: KRAS KD
[2] = target: GDP-bound NRAS wild-type protein (Homo sapiens, UniProt P01111); assay: Binding to NRAS by surface plasmon resonance (SPR), Single Cycle Kinetics; settings: for NRAS/KRAS (ratio of KD value for NRAS to KD value for KRAS) / NRAS/KRAS (ratio of KD value with respect to NRAS to KD value with respect to KRAS): SPR, GDP-bound NRAS wild-type protein vs GDP-bound KRAS wild-type protein; for NRAS/KRAS (ratio of KD value with respect to GDP-bound NRAS wild-type protein to KD value with respect to KRAS): SPR KD ratio NRAS/KRAS, class symbols
[3] = target: GDP-bound HRAS wild-type protein (Homo sapiens, UniProt P01112); assay: Binding to HRAS by surface plasmon resonance (SPR), Single Cycle Kinetics; settings: for HRAS/KRAS (ratio of KD value for HRAS to KD value for KRAS) / HRAS/KRAS (ratio of KD value with respect to HRAS to KD value with respect to KRAS): SPR, GDP-bound HRAS wild-type protein vs GDP-bound KRAS wild-type protein; for HRAS/KRAS (ratio of KD value with respect to GDP-bound HRAS wild-type protein to KD value with respect to KRAS): SPR KD ratio HRAS/KRAS, class symbols
[4] = SPR Single Cycle Kinetics, 1:1 binding model

GDP-bound NRAS wild-type protein, sequence (P01111 whole entry): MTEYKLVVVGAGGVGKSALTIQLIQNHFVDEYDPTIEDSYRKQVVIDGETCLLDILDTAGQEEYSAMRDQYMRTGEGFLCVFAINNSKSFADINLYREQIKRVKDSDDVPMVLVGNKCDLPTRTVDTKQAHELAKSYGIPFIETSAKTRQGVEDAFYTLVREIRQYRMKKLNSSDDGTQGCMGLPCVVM
GDP-bound KRAS wild-type protein, sequence (P01116 whole entry): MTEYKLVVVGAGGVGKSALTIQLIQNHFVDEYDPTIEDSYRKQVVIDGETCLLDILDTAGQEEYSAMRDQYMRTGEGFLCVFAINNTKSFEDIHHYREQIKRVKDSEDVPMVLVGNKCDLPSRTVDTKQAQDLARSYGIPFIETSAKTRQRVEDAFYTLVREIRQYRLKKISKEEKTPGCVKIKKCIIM
GDP-bound HRAS wild-type protein, sequence (P01112 whole entry): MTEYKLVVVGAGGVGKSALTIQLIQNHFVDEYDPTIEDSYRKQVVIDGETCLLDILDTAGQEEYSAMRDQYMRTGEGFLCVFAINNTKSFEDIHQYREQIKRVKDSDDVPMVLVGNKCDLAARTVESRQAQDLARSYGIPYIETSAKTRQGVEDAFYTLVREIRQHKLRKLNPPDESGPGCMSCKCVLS

Row | SMILES | Kd [1, 4] | Kd ([1]; SPR, Single Cycle Kinetics) | NRAS/KRAS (ratio of KD value for NRAS to KD value for KRAS) [2] | HRAS/KRAS (ratio of KD value for HRAS to KD value for KRAS) [3] | other results
1 | CCC[C@H]1C(=O)N[C@@H]([C@@H](C)CC)C(=O)N(C)CC(=O)N(C)[C@H]2C/C=C\CCN(C2=O)[C@@H](Cc2ccc(C(F)(F)F)cc2)C(=O)N(C)CC(=O)N[C@@H](CCc2cc(F)c(C(F)(F)F)c(F)c2)C(=O)N2C[C@H](OCC)C[C@H]2C(=O)NC2(CCC2)C(=O)N(C)[C@@H](C2CCCC2)C(=O)N(C)[C@H](C(=O)N(C)CCC)CC(=O)N1C [PP1389, (2S,8S,12R,14S,20S,23S,27S,30S,36S,38Z)-20-cyclopentyl-8-[2-[3,5-difluoro-4-(trifluoromethyl)phenyl]ethyl]-12-ethoxy-N,4,19,22,26,32,35-heptamethyl-30-[(1S)-1-methylpropyl]-3,6,9,15,18,21,25,28,31,34,42-undecaoxo-N,27-dipropyl-2-[[4-(trifluoromethyl)phenyl]methyl]spiro[1,4,7,10,16,19,22,26,29,32,35-undecazatricyclo[34.5.1.0^10,14]dotetracont-38-ene-17,1′-cyclobutane]-23-carboxamide] |  |  |  |  | Kd ([1]; SPR, Single Cycle Kinetics, 1:1 binding model): 0.066 nM; NRAS/KRAS (ratio of KD value for NRAS to KD value for KRAS) ([2]; KD ratio class): AA (a compound having 20 or more is denoted as AA); HRAS/KRAS (ratio of KD value for HRAS to KD value for KRAS) ([3]; KD ratio class): A (a compound having 10 or more and less than 20 is denoted as A)
2 | CCCN1C(=O)CN(C)C(=O)[C@@H]2CCN2C(=O)[C@H]([C@@H](C)CC)NC(=O)[C@H](CC(C)C)N(C)C(=O)C[C@@H](C(=O)N2CCOCC2)N(C)C(=O)[C@H](CC(F)(F)F)N(C)C(=O)C2(CCCC2)NC(=O)[C@@H]2CCCN2C(=O)[C@H](CCc2cc(F)c(C(F)(F)F)c(F)c2)NC(=O)CN(C)C(=O)[C@@H]1Cc1ccc(C(F)(F)F)cc1 [PP0784] ([NMeL]I[Aze][Sar][NPrPhe(4-CF3)][Sar][hPhe(3,5-F2-4-CF3)]P[Ac5c][NMeAbu(4,4,4-F3)][NMeD]-Morpholide; lactam N-11) | 17 nM |  |  |  | NRAS/KRAS (ratio of KD value with respect to NRAS to KD value with respect to KRAS) [2]: B (a compound having 3 or more and less than 10 is denoted as B); HRAS/KRAS (ratio of KD value with respect to HRAS to KD value with respect to KRAS) [3]: B (a compound having 3 or more and less than 10 is denoted as B)
3 | CCOC[C@H]1C(=O)N[C@@H]([C@@H](C)CC)C(=O)N2CCC[C@H]2C(=O)N(C)[C@H]2C/C=C\CCN(C2=O)[C@@H](Cc2ccc(C(F)(F)F)cc2)C(=O)N(C)CC(=O)N[C@@H](CCc2ccc(C(F)(F)F)c(OC)c2)C(=O)N2C[C@H](OCC)C[C@H]2C(=O)N(C)C2(CCC2)C(=O)N(C)[C@@H](C(CC)CC)C(=O)N(C)[C@H](C(=O)N(C)C)CC(=O)N1C [PP2319] |  | 0.35 nM | AA (a compound having 20 or more is denoted as AA) | A (a compound having 10 or more and less than 20 is denoted as A) | 
4 | CCO[C@@H]1C[C@H]2C(=O)NC3(CC(C)(C)C3)C(=O)N(C)[C@@H](C3CCCC3)C(=O)N(C)[C@H](C(=O)N(C)CC)CC(=O)N(C)[C@@H](CC(C)C)C(=O)N[C@@H]([C@@H](C)CC)C(=O)N(C)CC(=O)N(C)[C@H]3C/C=C\CCN(C3=O)[C@@H](Cc3ccc(C(F)F)cc3)C(=O)N(C)CC(=O)N[C@@H](CCc3ccc(C(F)(F)F)c(OC)c3)C(=O)N2C1 [PP2828] | 0.11 nM |  |  |  | NRAS/KRAS (ratio of KD value with respect to GDP-bound NRAS wild-type protein to KD value with respect to KRAS) [2]: A (a compound having 10 or more and less than 20 is denoted as A); HRAS/KRAS (ratio of KD value with respect to GDP-bound HRAS wild-type protein to KD value with respect to KRAS) [3]: A (a compound having 10 or more and less than 20 is denoted as A)
5 | CCC[C@H]1C(=O)N[C@@H]([C@@H](C)CC)C(=O)N(C)CC(=O)N(C)[C@H]2CCCCCN(C2=O)[C@@H](Cc2ccc(C(F)(F)F)cc2)C(=O)N(C)CC(=O)N[C@@H](CCc2cc(F)c(C(F)(F)F)c(F)c2)C(=O)N2C[C@H](OCC)C[C@H]2C(=O)NC2(CCC2)C(=O)N(C)[C@@H](C2CCCC2)C(=O)N(C)[C@H](C(=O)N2CCOCC2)CC(=O)N1C [PP0679] | 0.58 nM |  |  |  | NRAS/KRAS (ratio of KD value with respect to NRAS to KD value with respect to KRAS) [2]: B (a compound having 3 or more and less than 10 is denoted as B); HRAS/KRAS (ratio of KD value with respect to HRAS to KD value with respect to KRAS) [3]: B (a compound having 3 or more and less than 10 is denoted as B)
6 | CCC[C@H]1C(=O)N[C@@H]([C@@H](C)CC)C(=O)N(C)[C@@H](C)C(=O)N2CC[C@H]2C(=O)N(CCC)[C@@H](Cc2ccc(C(F)(F)F)cc2)C(=O)N(C)CC(=O)N[C@@H](CCc2ccc(C(F)(F)F)c(Cl)c2)C(=O)N2CCC[C@H]2C(=O)NC2(CCCC2)C(=O)N(C)[C@@H](C2CCCC2)C(=O)N(C)[C@H](C(=O)N2CCOCC2)CC(=O)N1C [PP0193] ([NMeNva]I[NMeA][Aze][NPrPhe(4-CF3)][Sar][hPhe(3-Cl-4-CF3)]P[Ac5c][NMeGly(cPent)][NMeD]-Morpholide; lactam N-11) | 0.17 nM |  | C (A compound having a KD ratio of 0.1 or more and less than 3 is denoted as C) | C (A compound having a KD ratio of 0.1 or more and less than 3 is denoted as C) | 
7 | CCO[C@@H]1C[C@H]2C(=O)NC3(CC(C)(C)C3)C(=O)N(C)[C@@H](C3CCCC3)C(=O)N(C)[C@H](C(=O)N(C)CC)CC(=O)N(C)[C@@H](C3CCC3)C(=O)N[C@@H]([C@@H](C)CC)C(=O)N(C)CC(=O)N(C)[C@H]3C/C=C\CCN(C3=O)[C@@H](Cc3ccc(C(F)(F)F)cc3)C(=O)N(C)CC(=O)N[C@@H](CCc3cc(F)c(C(F)(F)F)c(F)c3)C(=O)N2C1 [PP2038] |  | 0.16 nM | A (a compound having 10 or more and less than 20 is denoted as A) | A (a compound having 10 or more and less than 20 is denoted as A) | 
8 | CCC[C@H]1C(=O)N[C@@H]([C@@H](C)CC)C(=O)N(C2CC2)CC(=O)N(C)[C@H]2C/C=C\CCN(C2=O)[C@@H](Cc2ccc(C(F)(F)F)cc2)C(=O)N(C)CC(=O)N[C@@H](CCc2ccc(C(F)(F)F)c(OC)c2)C(=O)N2C[C@H](OCC)C[C@H]2C(=O)NC2(CC(C)(C)C2)C(=O)N(C)[C@@H](C2CCCC2)C(=O)N(C)[C@H](C(=O)N(C)C)CC(=O)N1C [PP2105] |  | 0.18 nM | A (a compound having 10 or more and less than 20 is denoted as A) | A (a compound having 10 or more and less than 20 is denoted as A) | 
9 | CC[C@H](C)[C@@H]1NC(=O)[C@H](CC(C)C)N(C)C(=O)C[C@@H](C(=O)N2CCOCC2)N(C)C(=O)[C@H](C2CCCC2)N(C)C(=O)C2(CCCC2)NC(=O)[C@@H]2CCCN2C(=O)[C@H](CCc2ccc(C(F)(F)F)c(Cl)c2)NC(=O)CN(C)C(=O)[C@H](Cc2ccc(OC(F)(F)F)cc2)N2CCCC[C@@H](C2=O)N(C)C(=O)CN(C)C1=O [PP0536] | 0.63 nM |  |  |  | NRAS/KRAS (ratio of KD value with respect to NRAS to KD value with respect to KRAS) [2]: B (a compound having 3 or more and less than 10 is denoted as B); HRAS/KRAS (ratio of KD value with respect to HRAS to KD value with respect to KRAS) [3]: B (a compound having 3 or more and less than 10 is denoted as B)
10 | CCO[C@@H]1C[C@H]2C(=O)NC3(CCC3)C(=O)N(C)[C@@H](C3CCCC3)C(=O)N(C)[C@H](C(=O)N3C[C@@H](C)O[C@@H](C)C3)CC(=O)N(C)[C@@H](CC(C)C)C(=O)N[C@@H]([C@@H](C)CC)C(=O)N(C)CC(=O)N(C)[C@H]3CCCCCN(C3=O)[C@@H](Cc3ccc(F)cc3)C(=O)N(C)CC(=O)N[C@@H](CCc3ccc(C(F)(F)F)c(Cl)c3)C(=O)N2C1 [PP1153] |  | 0.28 nM | B (a compound having 3 or more and less than 10 is denoted as B) | B (a compound having 3 or more and less than 10 is denoted as B) | 
11 | CCCOC[C@H]1C(=O)N[C@@H]([C@@H](C)CC)C(=O)N(C)CC(=O)N(C)[C@H]2C/C=C\CCN(C2=O)[C@@H](Cc2ccc(C(F)(F)F)cc2)C(=O)N(C)CC(=O)N[C@@H](CCc2ccc(C(F)(F)F)c(Cl)c2)C(=O)N2C[C@H](OCC)C[C@H]2C(=O)NC2(CCC2)C(=O)N(C)[C@@H](C2CCCC2)C(=O)N(C)[C@H](C(=O)N(C)CCC)CC(=O)N1C [PP2831] | 0.11 nM |  |  |  | NRAS/KRAS (ratio of KD value with respect to GDP-bound NRAS wild-type protein to KD value with respect to KRAS) [2]: A (a compound having 10 or more and less than 20 is denoted as A); HRAS/KRAS (ratio of KD value with respect to GDP-bound HRAS wild-type protein to KD value with respect to KRAS) [3]: A (a compound having 10 or more and less than 20 is denoted as A)
12 | CCCN1C(=O)[C@@H]2CCN2C(=O)[C@H](C)N(C)C(=O)[C@H](CC)NC(=O)[C@H](CC(C)C)N(C)C(=O)C[C@@H](C(=O)N2CCOCC2)N(C)C(=O)[C@H](C2CCCC2)N(C)C(=O)C2(CCCC2)NC(=O)[C@@H]2CCCN2C(=O)[C@H](CCc2ccc(C(F)(F)F)c(Cl)c2)NC(=O)CN(C)C(=O)[C@@H]1Cc1ccc(C(F)(F)F)cc1 [PP0269] ([NMeL][Abu][NMeA][Aze][NPrPhe(4-CF3)][Sar][hPhe(3-Cl-4-CF3)]P[Ac5c][NMeGly(cPent)][NMeD]-Morpholide; lactam N-11) | 1.4 nM |  | C (A compound having a KD ratio of 0.1 or more and less than 3 is denoted as C) | B (a compound having 3 or more and less than 10 is denoted as B) | 

Source: patent US20240158446A1, “CYCLIC COMPOUND HAVING SELECTIVE INHIBITORY ACTION ON KRAS OVER HRAS AND NRAS” (CHUGAI SEIYAKU KABUSHIKI KAISHA, priority 2021, published 2024)
